Results published in publication PMC9929232, “On-demand male contraception via acute inhibition of soluble adenylyl cyclase” (Nature Communications, 2023).
Several values for one entry are separate records, joined by “and”; a condition that tells them apart may be missing. Identical values can stand only once.

What was measured:
[1] = biological target: T1, immobilized human sAC protein (Homo sapiens, UniProt Q96PN6); experiment: Surface plasmon resonance binding kinetics;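 note: Reference-channel response subtracted from active-channel response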; settings: Fig. 1e
T1 construct: recombinant purified His-tagged sACt protein (50 μg/ml)
T1 sequence (Q96PN6 1-469 limits assumed): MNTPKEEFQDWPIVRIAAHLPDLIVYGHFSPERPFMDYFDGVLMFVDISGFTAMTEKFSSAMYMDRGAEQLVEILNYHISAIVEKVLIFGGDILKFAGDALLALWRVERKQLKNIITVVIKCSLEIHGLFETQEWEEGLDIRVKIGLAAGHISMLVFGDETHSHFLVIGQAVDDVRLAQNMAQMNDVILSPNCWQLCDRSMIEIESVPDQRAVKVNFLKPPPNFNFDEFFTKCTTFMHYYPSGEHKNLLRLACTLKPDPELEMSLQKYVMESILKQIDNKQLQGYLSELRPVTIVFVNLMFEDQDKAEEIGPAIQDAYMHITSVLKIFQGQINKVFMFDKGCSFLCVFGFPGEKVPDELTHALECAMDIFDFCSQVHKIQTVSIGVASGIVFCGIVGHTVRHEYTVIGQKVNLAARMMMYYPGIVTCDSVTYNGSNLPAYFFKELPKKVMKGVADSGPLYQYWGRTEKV
Method: Association and dissociation rate constants of sAC inhibitors were obtained with a Biacore 8K instrument (Cytiva) using a parallel kinetics protocol. Series S Sensor NTA chips (Cytiva) were prepared by applying recombinant purified His-tagged sACt protein (50 μg/ml) in PBS-P+ buffer (1 mM KH2PO4, 150 mM NaCl, 6 mM Na2HPO4, 0.05% (w/v) P20 Surfactant). The His-tagged sAC protein was captured via Ni^2+-His-tag chelation and covalently immobilized by amine coupling with a 1:1 mixture of 1-ethyl-3-(3-dimethylaminopropyl) carbodiimide and N-hydroxysuccinimide (active channels). After coupling, remaining reactive groups on the chip’s surface were blocked with 1 M ethanolamine followed by 350 mM EDTA to wash away any free Ni^2+. Following preparation, TBS-P+ running buffer (50 mM Tris, 150 mM NaCl, and 0.05% P20 Surfactant) supplemented with 1% DMSO was flowed over the surface of the chip until a stable baseline was obtained. For each sAC inhibitor, which were dissolved in DMSO and diluted in running buffer, increasing concentrations were injected into parallel channels for 120 s at a flow rate of 50 µl/min followed by running buffer for 600 s to allow for dissociation. All experiments included reference channels; i.e., inhibitor run over parallel channels without immobilized protein. […] Curves were fitted, and kon, KD, and koff values were determined using the Biacore 8K Insight Evaluation Software Version 2.0 (Cytiva) and a 1:1 binding kinetics model.

human sperm [2] = experiment: cAMP generation in human sperm in vitro, incl. wash-out by dilution; assay type: cell-based; settings: 30 minutes
Method: Samples of human semen were obtained from healthy volunteers with their prior written consent following a protocol approved by Weill Cornell Medicine’s Institutional Review Board (IRB 21-03023495). […] Semen was incubated for 30 min in a 37 °C incubator to liquefy. […] The tubes were incubated at a tilted angle of 45° at 37 °C for 60 min. Motile sperm were allowed to swim up into the HTF layer; immotile sperm and other cells or tissue debris remain in the ejaculate fraction. Up to 3 ml of the HTF layer was transferred to a fresh tube and washed twice in HTF by centrifugation (700 × g, 20 min). The supernatant was removed after the last centrifugation step and the sperm pellet was resuspended in 1 ml HTF. The purity and vitality of each sample was assessed via light microscopy. Sperm cell numbers were determined using a hemocytometer and adjusted to a concentration of 1 × 10^7 cells/ml.

human sperm [3] = experiment: Flagellar beat frequency of tethered human sperm; assay type: cell-based
Method: An inverted dark-field video microscope (IX73; Olympus) with a 10 x objective (mouse sperm) or a 20 x objective (human sperm) (UPLSAPO, NA 0.8; Olympus) was combined with a high-speed camera (ORCA Fusion; Hamamatsu). Dark-field videos were recorded with a frame rate of 200 Hz. The temperature of the heated stage was set to 37 °C (stage top incubator WSKMX; TOKAI HIT). The images were preprocessed with the ImageJ plugin SpermQ Preparator (Gaussian blur with sigma 0.5 px; subtract background method with radius 5 px) and analyzed using the ImageJ plugin SpermQ[57]. The beat frequency was determined from the highest peak in the frequency spectrum of the curvature time course, obtained by Fast Fourier Transform.

mouse sperm = experiment: Acrosome reaction assay, mouse sperm, zona pellucidae-evoked; assay type: cell-based; settings: Fig. 2g replicates, 5 μM TDI-10229 or 10 nM TDI-11861
Method: Zonae pellucidae were isolated from female mice superovulated by intraperitoneal injection of 10 I.U. […] 3 days before the experiment. 14 h before oocyte isolation, mice were injected with 10 I.U. pregnant mare’s serum gonadotropin. Mice were sacrificed by cervical dislocation and oviducts were dissected. Cumulus-enclosed oocytes were separated from the oviducts and placed into TYH buffer containing 300 μg/ml hyaluronidase. After 15 min, cumulus-free oocytes were transferred into fresh buffer and washed twice. Zonae pellucidae and oocytes were separated by shear forces generated by expulsion from […] pasteur pipettes. Zona pellucidae were counted, transferred into fresh buffer, and heat-solubilized by incubation for 10 min at 65 °C.
Acrosome reaction was induced by incubating mouse sperm with 50 mouse solubilized zonae pellucidae for 15 min at 37 °C. Human sperm were incubated with 10 μM progesterone for 30 min at 37 °C. […] Samples were air-dried on microscope slides and fixed for 30 minutes in 100% ethanol at room temperature (RT). For acrosome staining, mouse and human sperm were incubated for 30 min in the dark with 5 μg/ml PNA-FITC or 5 μg/ml PSA-FITC, respectively, and counterstained with 2 μg/ml DAPI. After curing, slides were analyzed using a Zeiss LSM 880 Laser Scanning Confocal Microscope; images were captured with two photomultiplier and one Gallium Arsenide Phosphide detector using ZEN Imaging software. For each condition, at least 600 cells were analyzed using ImageJ 1.52.

[4] = sheet Fig. 2c replicates, 5 μM TDI-10229 or 10 nM TDI-11861 present
[5] = sheet Fig. 2d replicates, 5 min preincubation in 5 μM TDI-10229 or 10 nM TDI-11861, diluted 1:100 into inhibitor-free media

Cc1c(Cc2ccccc2)c(-c2cc(Cl)nc(N)n2)nn1C [TDI-10229, reference compound]
SPR sensorgram response ([1]; 2.3 nM, Time 1.8 s): -0.005
SPR sensorgram response ([1]; 2.3 nM, Time 1.9 s): -0.0004
SPR sensorgram response ([1]; 2.3 nM, Time 2 s): 1.724e-7
SPR sensorgram response ([1]; 7 nM, Time 1.8 s): 0.0365
SPR sensorgram response ([1]; 7 nM, Time 1.9 s): 0.0954
SPR sensorgram response ([1]; 7 nM, Time 2 s): 0.1127
SPR sensorgram response ([1]; 21 nM, Time 1.8 s): 0.0362
SPR sensorgram response ([1]; 21 nM, Time 1.9 s): 0.0362
SPR sensorgram response ([1]; 21 nM, Time 2 s): 0.0493
SPR sensorgram response ([1]; 62 nM, Time 1.8 s): 0.4405
SPR sensorgram response ([1]; 62 nM, Time 1.9 s): 0.5261
SPR sensorgram response ([1]; 62 nM, Time 2 s): 0.5966
SPR sensorgram response ([1]; 185 nM, Time 1.8 s): 1.6528
SPR sensorgram response ([1]; 185 nM, Time 1.9 s): 1.8027
SPR sensorgram response ([1]; 185 nM, Time 2 s): 1.949
SPR sensorgram response ([1]; 555 nM, Time 1.8 s): 3.219
SPR sensorgram response ([1]; 555 nM, Time 1.9 s): 3.5189
SPR sensorgram response ([1]; 555 nM, Time 2 s): 3.8049
SPR sensorgram response ([1]; 1670 nM, Time 1.8 s): 10.7814
SPR sensorgram response ([1]; 1670 nM, Time 1.9 s): 11.5936
SPR sensorgram response ([1]; 1670 nM, Time 2 s): 12.3892
cAMP, capacitation media (human sperm [2]; [4]): 0.877 pmol/10^6 sperm and 0.67 pmol/10^6 sperm and 0.652 pmol/10^6 sperm and 0.78 pmol/10^6 sperm and 1.141 pmol/10^6 sperm and 0.8484 pmol/10^6 sperm and 1.0045 pmol/10^6 sperm
cAMP, non-capacitation media (human sperm [2]; [4]): 0.136 pmol/10^6 sperm and 0.12 pmol/10^6 sperm and 0.2 pmol/10^6 sperm and 0.75 pmol/10^6 sperm and 0.55 pmol/10^6 sperm and 0.7798 pmol/10^6 sperm and 0.493 pmol/10^6 sperm
cAMP, capacitation media (human sperm [2]; [5]): 1.0484 pmol/10^6 sperm and 0.9036 pmol/10^6 sperm and 1.37 pmol/10^6 sperm and 1.1895 pmol/10^6 sperm and 1.866 pmol/10^6 sperm
cAMP, non-capacitation media (human sperm [2]; [5]): 0.7172 pmol/10^6 sperm and 0.3596 pmol/10^6 sperm and 1.05 pmol/10^6 sperm and 0.7885 pmol/10^6 sperm and 1.206 pmol/10^6 sperm
Beat frequency, Basal (human sperm [3]; distal 5 µm of flagellum, 5 μM TDI-10229 or 10 nM TDI-11861, mean ± SEM): 12.2 ± 0.8 Hz
Beat frequency, + HCO3- (human sperm [3]; distal 5 µm, 25 mM NaHCO3, 5 μM TDI-10229 or 10 nM TDI-11861, mean ± SEM): 14.5 ± 0.6 Hz
Acrosome reacted (%), basal + db-cAMP/IBMX (mouse sperm; 5 mM db-cAMP/500 μM IBMX): 27.72% and 28.24% and 29.05% and 27.83% and 24.06%
Acrosome reacted (%), ZP (mouse sperm; 50 heat-solubilized zona pellucidae): 22.4% and 26.2% and 28.2% and 15.6% and 20%
Acrosome reacted (%), basal (mouse sperm; 90 min capacitating media): 20.3% and 33.8% and 26.7% and 16.5% and 28%
Acrosome reacted (%), ZP + db-cAMP/IBMX (mouse sperm; zona pellucidae, 5 mM db-cAMP/500 μM IBMX): 32% and 38.6% and 36.8% and 38% and 41.8%
